Data as given in the SangsterLogP compilation.

Experiment: method code SF-AS, from PMID: 2985094
Conditions: pH 7.4

Structure (SMILES) | logD
Cn1c(N)c2c(ncn2Cc2ccccc2)nc1=O | 0.07
CC(=O)OCCn1cnc2[nH]c(=O)n(C)c(=N)c21 | -1.2
C=COCCn1cnc2[nH]c(=O)n(C)c(=N)c21 | -0.78
CCSCCn1cnc2[nH]c(=O)n(C)c(=N)c21 | -0.13
CCOCCn1cnc2[nH]c(=O)n(C)c(=N)c21 | -1.1
Cn1c(=O)[nH]c2c(ncn2CCCC(=O)c2ccc(F)cc2)c1=N | 0.44
C=CCn1cnc2c(=N)n(C)c(=O)[nH]c21 | -0.57
COCn1cnc2c(=N)n(C)c(=O)[nH]c21 | -1.22
COCCn1cnc2c(N)n(C)c(=O)nc21 | -0.96
COCn1cnc2[nH]c(=O)n(C)c(=N)c21 | -2.41
CCOCCn1cnc2c(N)n(C)c(=O)nc21 | -0.4
COCCOCn1cnc2c(=N)n(C)c(=O)[nH]c21 | -1.52
Cn1c(=O)[nH]c2ncn(CCCC(=O)c3ccc(F)cc3)c2c1=N | -1.04
COCn1cnc2nc(=O)n(C)c(N)c21 | -2.41
Cn1c(N)c2ncn(Cc3ccccc3)c2nc1=O | 0.65
Cn1c(=O)[nH]c2ncn(CCc3ccc(Br)cc3)c2c1=N | 1.25
CCSCCn1cnc2c(=N)n(C)c(=O)[nH]c21 | 0
Cn1c(=O)[nH]c2ncn(C)c2c1=N | -2.27
C=COCCn1cnc2c(=N)n(C)c(=O)[nH]c21 | -0.24
COCCn1cnc2nc(=O)n(C)c(N)c21 | -1.49
CCOC(=O)CCn1cnc2c(=N)n(C)c(=O)[nH]c21 | -0.45
